This data set concerns Spontaneously hypertensive rats. The experiment in a line: Blood pressure and heart rate by tail-cuff after chronic local drug delivery to the renal capsule via implanted minipumps.
The mark [1] stands for this setting: local delivery to renal capsule by minipump, tail-cuff, over time.

Data on one molecule can be found in patent US20140221964A1, “SYSTEMS AND METHODS FOR LOCAL DRUG DELIVERY TO KIDNEYS” (priority 2011, published 2014).

Consider `Clc1cccc(Cl)c1N=C1NCCN1` [clonidine], for which the “dosage resulting in the blood-pressure effect, compared with oral dosage expected for a similar result” value (local delivery to renal capsule) is given as “significantly less than an oral dosage”. In addition, under “local delivery to renal capsule by minipump”, the “heart rate (side effect)” value is “not reduced”. Also, under setting [1], the diastolic blood pressure entry was “reduced”, the mean blood pressure entry was “reduced” and the systolic blood pressure result is reported as “reduced”.
